# Data from patent US20150359794A1, “IMPAIRMENT OF THE LARGE RIBOSOMAL SUBUNIT PROTEIN RPL24 BY DEPLETION OR ACETYLATION” (Buck Institute for Research on Aging, priority 2014, published 2015).
# Assays:
# Format in all cases: cell-based, human
# ribosomal protein = assay: Acetyl-lysine western blot of ribopellets (ribosomal protein acetylation); conditions: SKBR3 cells; for ribosomal protein acetylation, including the band that co-migrates with RPL24: western blot of ribopellets (FIG. 4c,d)
# Description: (§1) Previous studies have shown that pan-inhibitors of class I and II histone deacetylases, like TSA, can rapidly destabilize a number of oncogenic transcripts including HER2 in a cycloheximide-dependent manner (FIG. 9). […] Thus, SKBR3 cells were treated with TSA to evaluate polysome protein acetylation and determine if, similar to RPL24 depletion, histone deacetylase inhibition can affect ribosome assembly dynamics. To detect early (2 h) ribosome or polysome acetylation following histone deacetylase inhibition treatment (1 μM TSA), SKBR3 polysomes were isolated using a discontinuous sucrose gradient as previously described. […] Mass spectrometry studies indicate that 15 ribosomal proteins, 11 large subunit proteins (RPL24 included) and 4 small subunit proteins, underwent at least a two-fold induction in acetylation following 2 h or 6 h TSA treatment (1 μM) (FIG. 4b, FIG. 10a-q).
# (§2) Like TSA, the HDAC6 (class IIb)-selective inhibitors, Tubacin and Compound 101, as well as HDAC6 siRNA, all induce tubulin acetylation as expected as well as ribosomal protein acetylation, including the band that co-migrates with RPL24 (FIG. 4c,d, indicated by arrows). […] Thus, the tubulin acetylating effects of pan-histone deacetylase inhibition, known to be mediated by inhibition or knockdown of HDAC6, correspond to the observed ribosome and RPL24 acetylation responses induced by TSA.
# (§3) Cells are lysed in RIPA buffer (10 mM Tris-HCL (pH 8.0), 1 mM EDTA, 0.5 mM EGTA, 1% triton X-100, 0.1% sodium deoxycholate, 0.1% SDS, 140 mM NaCl, 20 mM NaF, Complete EDTA-free protease inhibitor tablets (Roche Diagnostics Corp., Basel, Switzerland) and the phosphatase inhibitor cocktail PhosSTOP (Roche)), the latter two as indicated by the manufacturer's protocol. Equal amounts of protein are diluted in 2× sample buffer. Immunoblots on PVDF (Polyvinyldene Fluoride) membranes are blocked with nonfat milk in tris-buffered saline with 0.05% tween-20 (TBST). The following antibodies are incubated with membranes in 5% nonfat milk in TBST: RPL24 (Proteintech, Chicago, Ill.), Cyclin D1, Rack1, RPL4 (Santa Cruz Biotechnology, Santa Cruz, Calif.), NBS1, GAPDH (EMD Millipore Corporation, Chicago, Ill.), Survivin, β-tubulin, acetyl-lysine, eIF6, acetyl-H2B, H2B, (Cell Signaling Technology, Boston, Mass.), acetyl-tubulin, tubulin (Sigma Aldrich (St. Louis, Mo.))
# Cells, plated at […] confluency, are treated as indicated. After treatment, cells are treated with 50 μg/ml cycloheximide for 15 minutes. Cells are lysed with a buffer containing 10 mM HEPES, 10 mM KCl, 75 mM NaCl, 10 mM MgCl2, 0.35% NP40, pH 7.9 supplemented with Complete EDTA-free protease inhibitor tablets, PhosSTOP phosphatase inhibitor tablets (Roche) per manufacturer's instructions, 50 μg/ml cycloheximide, SUPERase RNase inhibitors (Life Technologies) per manufacturer's instructions, 15 μM TSA, and 5 mM nicotinimide to inhibit histone deacetylases. Supernatants are collected as cytoplasmic preparations. Where indicated, pellets containing nuclei are resuspended in RIPA buffer (described above). The suspension is spun at 13,000 rpm for 5 min and supernatants are collected as nuclear preparations.
# Ribosomes are subsequently isolated from cytoplasmic preparations as described previously. Briefly, lysates are layered on top of a 12% and 33% discontinuous sucrose gradient and spun at 38,000 rpm for 2 h. The resulting polysome pellet is then resuspended, stripped of RNA with acetic acid, and then pelleted with acetone. The pellet is then resuspended in 8 M urea, 2% CHAPS, and 25 mM dithiothreitol (DTT).
# FIG. 4: Ribosomal protein acetylation is induced by histone deacetylase inhibition. (a-c) SKBR3 cells were treated with the indicated drugs for the indicated period of time. (d) SKBR3 cells were transfected with the indicated siRNAs and allowed to incubate for 72 hours. (a, c, d). The indicated western blots were performed in ribopellets, total cytoplasmic lysates, or nuclear extracts. […]
# tubulin = assay: Western blot for tubulin acetylation in SKBR3 cells; conditions: western blot (FIG. 4c,d)
# Description: as §2, §3
# FIG. 4: Ribosomal protein acetylation is induced by histone deacetylase inhibition. (a-c) SKBR3 cells were treated with the indicated drugs for the indicated period of time. (d) SKBR3 cells were transfected with the indicated siRNAs and allowed to incubate for 72 hours. (a, c, d). The indicated western blots were performed in ribopellets, total cytoplasmic lysates, or nuclear extracts. (b) Mass spectrometry was performed on ribopellets as described in materials and methods and in FIG. 6. The fold change in acetylated peptide to total peptide case by TSA treatment is plotted. Only proteins that underwent at least a two-fold induction upon TSA treatment are shown. Error bars represent the standard error of the mean for three biological replicates.
# histone H2B = assay: Western blot for histone H2B acetylation in SKBR3 cells; conditions: western blot (FIG. 4c)
# Description: as §2
# Cells are lysed in RIPA buffer (10 mM Tris-HCL (pH 8.0), 1 mM EDTA, 0.5 mM EGTA, 1% triton X-100, 0.1% sodium deoxycholate, 0.1% SDS, 140 mM NaCl, 20 mM NaF, Complete EDTA-free protease inhibitor tablets (Roche Diagnostics Corp., Basel, Switzerland) and the phosphatase inhibitor cocktail PhosSTOP (Roche)), the latter two as indicated by the manufacturer's protocol. Equal amounts of protein are diluted in 2× sample buffer. Immunoblots on PVDF (Polyvinyldene Fluoride) membranes are blocked with nonfat milk in tris-buffered saline with 0.05% tween-20 (TBST). […]
# HER2 mRNA = assay: Northern blot of HER2 transcript levels; conditions: SKBR3 cells, cycloheximide 50 μg/ml, 6 h with TSA 1 μM
# Description: as §1
# Cells are harvested and RNA is extracted using Trizol (Life Technologies) per manufacturer's protocol. Northern blots are performed as previously described. Briefly, RNA is then electrophoresed into 1% agarose-formaldehyde gels and transferred onto PVDF membranes. Membranes are then hybridized with ^32P-labelled cDNA probes for HER2 or GAPDH, washed, and visualized by autoradiography.
# SKBR3 cells were treated with TSA (1 μM, 6 h) and/or cycloheximide (CX, 50 μg/ml, 6 h) or with the respective vehicle controls. […]
Structure (SMILES),"ribosomal protein acetylation, including the band that co-migrates with RPL24 (ribosomal protein)",tubulin acetylation (tubulin),ribosomal protein acetylation (ribosomal protein; even at a dose of 20 μM (FIG. 4c)),histone H2B acetylation (histone H2B),effect on TSA-induced HER2 mRNA decay (HER2 mRNA)
O=C(NO)c1cnc(NC2(c3cccc(F)c3)CCCCC2)nc1 [Compound 101],induce,induce,–,–,–
Nc1ccccc1NC(=O)c1ccc(CNC(=O)OCc2cccnc2)cc1 [Entinostat],–,without acetylating tubulin,does not alter,induces,–
O=C(CCCCCCC(=O)Nc1ccc([C@H]2O[C@@H](CSc3nc(-c4ccccc4)c(-c4ccccc4)o3)C[C@@H](c3ccc(CO)cc3)O2)cc1)NO [Tubacin],induce,induce,–,–,–
C[C@@H]1C[C@@H]([C@H](O)CC2CC(=O)NC(=O)C2)C(=O)[C@@H](C)C1 [cycloheximide],–,–,–,–,abrogated
